Data published in the supplement of paper PMC4862054.

Experiments:
Settings in all cases: incubation time: 72 h
BT-474 [1] = test: normalised response (% of control), CellTox Green; higher = less cell death (100 = DMSO, 0 = benzethonium chloride kill control)
How it was run: (§1)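 Each entry is the normalised signal at a single concentration within a series. The series comprised 5 concentrations in 10-fold steps over a compound-specific 10,000-fold range, placed in 384-well plates into which breast cancer cell lines were seeded as 20 µl suspension and incubated 72 h. CellTox Green (485/520 nm) fluorescence and then CellTiter-Glo luminescence were read, with signals normalised per plate to 0.1 % DMSO (100) and a positive kill control (0).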

Hs578T [2] = test: as above
How it was run: as §1

CAL-85-1 [3] = test: as above
How it was run: as §1

MDA-MB-453 [4] = test: as above
How it was run: as §1

MDA-MB-436 [5] = test: as above
How it was run: as §1

MCF-10A [6] = test: as above
How it was run: as §1

HCC1599 [7] = test: as above
How it was run: as §1

CAL-148 [8] = test: as above
How it was run: as §1

MDA-MB-468 [9] = test: as above
How it was run: as §1

HCC1143 [10] = test: as above
How it was run: as §1

MFM-223 [11] = test: as above
How it was run: as §1

HDQ-P1 [12] = test: as above
How it was run: as §1

MDA-MB-231 [13] = test: as above
How it was run: as §1

CAL-51 [14] = test: as above
How it was run: as §1

DU-4475 [15] = test: as above
How it was run: as §1

CAL-120 [16] = test: as above
How it was run: as §1

BT-549 [17] = test: as above
How it was run: as §1

BT-474 [18] = test: normalised response (% of control), CellTiter-Glo; higher = more viable cells (100 = DMSO, 0 = benzethonium chloride kill control)
Description: (§2)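 DSRT, 72 h incubation, CellTox Green / CellTiter-Glo readout. Signal is normalised to DMSO and benzethonium chloride controls. Value is the normalised response at dose 3.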

SK-BR-3 = test: as above
Description: as §2

Hs578T [19] = test: as above
Description: as §2

CAL-85-1 [20] = test: as above
Description: as §2

MDA-MB-453 [21] = test: as above
Description: as §2

MDA-MB-436 [22] = test: as above
Description: as §2

MCF-10A [23] = test: as above
Description: as §2

HCC1599 [24] = test: as above
Description: as §2

CAL-148 [25] = test: as above
Description: as §2

MDA-MB-468 [26] = test: as above
Description: as §2

HCC1937 [27] = test: as above
Description: as §2

HCC1143 [28] = test: as above
Description: as §2

MFM-223 [29] = test: as above
Description: as §2

HDQ-P1 [30] = test: as above
Description: as §2

MDA-MB-231 [31] = test: as above
Description: as §2

CAL-51 [32] = test: as above
Description: as §2

DU-4475 [33] = test: as above
Description: as §2

CAL-120 [34] = test: as above
Description: as §2

BT-549 [35] = test: as above
Description: as §2

HCC1937 [36] = test: normalised response (% of control), CellTox Green; higher = less cell death (100 = DMSO, 0 = benzethonium chloride kill control)
How it was run: as §1

Structure (SMILES)	normalised response (BT-474 [1]) [%]	normalised response (Hs578T [2]) [%]	normalised response (CAL-85-1 [3]) [%]	normalised response (MDA-MB-453 [4]) [%]	normalised response (MDA-MB-436 [5]) [%]	normalised response (MCF-10A [6]) [%]	normalised response (HCC1599 [7]) [%]	normalised response (CAL-148 [8]) [%]	normalised response (MDA-MB-468 [9]) [%]	normalised response (HCC1143 [10]) [%]	normalised response (MFM-223 [11]) [%]	normalised response (HDQ-P1 [12]) [%]	normalised response (MDA-MB-231 [13]) [%]	normalised response (CAL-51 [14]) [%]	normalised response (DU-4475 [15]) [%]	normalised response (CAL-120 [16]) [%]	normalised response (BT-549 [17]) [%]	normalised response (BT-474 [18]) [%]	normalised response (SK-BR-3) [%]	normalised response (Hs578T [19]) [%]	normalised response (CAL-85-1 [20]) [%]	normalised response (MDA-MB-453 [21]) [%]	normalised response (MDA-MB-436 [22]) [%]	normalised response (MCF-10A [23]) [%]	normalised response (HCC1599 [24]) [%]	normalised response (CAL-148 [25]) [%]	normalised response (MDA-MB-468 [26]) [%]	normalised response (HCC1937 [27]) [%]	normalised response (HCC1143 [28]) [%]	normalised response (MFM-223 [29]) [%]	normalised response (HDQ-P1 [30]) [%]	normalised response (MDA-MB-231 [31]) [%]	normalised response (CAL-51 [32]) [%]	normalised response (DU-4475 [33]) [%]	normalised response (CAL-120 [34]) [%]	normalised response (BT-549 [35]) [%]	normalised response (HCC1937 [36]) [%]
Cc1c(N)nc([C@H](CC(N)=O)NC[C@H](N)C(N)=O)nc1C(=O)N[C@H](C(=O)N[C@H](C)[C@@H](O)[C@H](C)C(=O)N[C@H](C(=O)NCCc1nc(-c2nc(C(=O)NCCC[S+](C)C)cs2)cs1)[C@@H](C)O)[C@@H](OC1OC(CO)C(O)C(O)C1OC1OC(CO)C(O)C(OC(N)=O)C1O)c1cnc[nH]1 (some centres not stated) [Bleomycin] (100 nM)	98.1	81.2	99.8	103	58.6	93.2	91.9	93.5	151	91.3	101	110	104	36.9	98.6	95.1	87.6	95.8	92.8	93.2	96.8	90.2	89.1	90.6	94.6	87.7	80.4	84.2	90.6	95.6	99.5	89.3	55	93.8	95.3	77.2	–
CCCCCOC(=O)Nc1nc(=O)n([C@@H]2O[C@H](C)[C@@H](O)[C@H]2O)cc1F [Capecitabine] (100 nM)	91.4	–	105	97.3	95.3	101	95.2	99.1	127	87.6	104	105	104	105	99.9	99.9	89.4	98.7	100	98.8	95.4	103	102	95.5	98.3	114	103	97.2	98.7	102	97.5	99.5	99.5	106	103	102	103
Cc1c(C(=O)Nc2ccc(N3C[C@@H](C)O[C@@H](C)C3)nc2)cccc1-c1ccc(OC(F)(F)F)cc1 [Erismodegib] (100 nM)	97.1	109	88.8	98.6	101	94.9	110	105	–	98.8	97.2	99.6	97.2	93.3	95.8	94.8	104	91.2	88.6	101	92.6	85	92.3	89.6	93.5	92.7	90.4	103	96.4	85.6	91.3	99.9	68.9	99.4	101	102	–
N[C@@H](Cc1ccc(N(CCCl)CCCl)cc1)C(=O)O [Melphalan] (125 nM)	102	–	104	76.5	103	98.4	88.9	89.5	87.3	102	96.1	108	50.5	75.1	107	101	103	91.5	84.8	93.1	105	79.2	98.1	103	104	78.3	75.4	83.4	90.2	91.5	90.1	83.3	67.5	92.7	108	100	99.1
C[C@]12C=CC(=O)C=C1CC[C@@H]1[C@@H]2C(=O)C[C@@]2(C)[C@H]1CC[C@]2(O)C(=O)CO [Prednisone] (100 nM)	103	111	104	107	92.4	85.8	105	64.5	126	119	78.5	–	–	101	103	99.5	96.7	107	104	101	103	113	101	109	133	117	99.3	101	105	102	101	107	68.4	101	103	99.8	–
CO[C@H]1C[C@@H]2CC[C@@H](C)[C@@](O)(O2)C(=O)C(=O)N2CCCC[C@H]2C(=O)O[C@H]([C@H](C)C[C@@H]2CC[C@@H](O)[C@H](OC)C2)CC(=O)[C@H](C)/C=C(\C)[C@@H](O)[C@@H](OC)C(=O)[C@H](C)C[C@H](C)/C=C/C=C/C=C/1C [Sirolimus] (1 nM)	102	–	105	109	79.2	91.9	94.8	103	119	78.7	92.6	97.1	109	107	105	97.4	78.5	90.5	95.4	88.2	78.4	93.7	92.4	112	103	94.2	71.1	85.6	92.5	96.5	102	101	90.1	98.7	98	83.5	–
